ChEMBL document CHEMBL4190351, “Synthesis and biological evaluation of novel 6,11-dihydro-5H-benzo[e]pyrimido- [5,4-b][1,4]diazepine derivatives as potential c-Met inhibitors” (Eur J Med Chem, 2017)
Values belong to the molecule of their own block, whether it stands above or below them.

Legend:
[1] = AUC (0 to t) in Sprague-Dawley rat at 4 mg/kg, iv measured after 5 mins to 4 hrs post dose by LC-MS/MS method; assay type: ADME, organism-based; design: time 0.083-4 hr, dose 4 mg/kg, route intravenous; conditions: in vivo
[2] = biological target: T1, Receptor-type tyrosine-protein kinase FLT3 (Homo sapiens, UniProt P36888); experiment: Inhibition of FLT3 (unknown origin)
T1 sequence (P36888 whole entry): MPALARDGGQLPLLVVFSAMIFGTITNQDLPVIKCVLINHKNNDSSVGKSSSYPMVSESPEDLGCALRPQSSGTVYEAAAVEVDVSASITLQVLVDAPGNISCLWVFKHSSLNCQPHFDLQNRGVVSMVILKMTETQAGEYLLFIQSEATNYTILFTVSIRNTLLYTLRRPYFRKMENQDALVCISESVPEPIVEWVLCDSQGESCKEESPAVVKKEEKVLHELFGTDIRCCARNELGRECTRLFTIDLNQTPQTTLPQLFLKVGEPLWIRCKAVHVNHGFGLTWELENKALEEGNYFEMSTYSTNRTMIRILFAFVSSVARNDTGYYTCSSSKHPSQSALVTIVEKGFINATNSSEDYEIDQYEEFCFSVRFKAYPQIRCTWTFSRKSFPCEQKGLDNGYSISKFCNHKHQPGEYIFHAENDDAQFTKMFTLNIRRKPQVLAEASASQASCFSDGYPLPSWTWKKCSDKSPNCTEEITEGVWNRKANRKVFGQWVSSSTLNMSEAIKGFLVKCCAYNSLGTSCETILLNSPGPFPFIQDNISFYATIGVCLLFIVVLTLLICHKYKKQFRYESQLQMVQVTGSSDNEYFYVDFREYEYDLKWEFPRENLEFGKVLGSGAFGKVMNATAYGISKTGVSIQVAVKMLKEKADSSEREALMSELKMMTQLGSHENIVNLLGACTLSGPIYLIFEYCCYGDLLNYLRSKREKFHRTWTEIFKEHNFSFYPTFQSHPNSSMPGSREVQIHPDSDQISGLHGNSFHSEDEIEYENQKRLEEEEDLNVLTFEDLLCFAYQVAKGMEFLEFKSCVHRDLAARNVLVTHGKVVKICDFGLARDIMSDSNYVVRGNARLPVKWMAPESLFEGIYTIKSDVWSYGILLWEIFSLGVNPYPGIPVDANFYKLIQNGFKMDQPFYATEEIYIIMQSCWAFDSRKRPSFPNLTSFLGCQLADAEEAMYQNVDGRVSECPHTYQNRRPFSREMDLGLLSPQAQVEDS

[3] = system: CAKI-1; experiment: Antitumor activity in human Caki1 cells xenografted in nude mouse assessed as inhibition of tumor growth at 80 mg/kg, ig qd for 21 days; assay type: functional; conditions: CAKI-1, po, 504 h, read-out: TGI
[4] = system: CAKI-1; experiment: Antitumor activity in human Caki1 cells xenografted in nude mouse assessed as inhibition of tumor growth at 40 mg/kg, ig qd for 21 days; assay type: functional; conditions: CAKI-1, po, 504 h, read-out: TGI
[5] = Oral bioavailability in Sprague-Dawley rat at 20 mg/kg measured after 5 mins to 4 hrs post dose by LC-MS/MS method; assay type: ADME, organism-based; conditions: in vivo
[6] = Tmax in Sprague-Dawley rat at 20 mg/kg, po measured after 5 mins to 4 hrs post dose by LC-MS/MS method; assay type: ADME, organism-based; conditions: in vivo
[7] = Apparent clearance during terminal phase in Sprague-Dawley rat at 20 mg/kg, po measured after 5 mins to 4 hrs post dose by LC-MS/MS method; assay type: ADME, organism-based; conditions: in vivo, read-out: CLz/F (converted)
[8] = Toxicity in KM mouse assessed as mouse survival at 620 mg/kg, po administered as single dose measured daily for 14 days (reference value: 100%); assay type: organism-based; conditions: in vivo
[9] = system: CAKI-1; experiment: Cytotoxicity in human Caki1 cells incubated for 72 hrs by sulforhodamine B assay; conditions: CAKI-1, 72 h
[10] = MRT (0 to t) in Sprague-Dawley rat at 4 mg/kg, iv measured after 5 mins to 4 hrs post dose by LC-MS/MS method; assay type: ADME, organism-based; conditions: in vivo
[11] = system: CAKI-1; experiment: Antitumor activity in human Caki1 cells xenografted in nude mouse assessed as inhibition of tumor growth at 20 mg/kg, ig qd for 21 days; assay type: functional; conditions: CAKI-1, po, 504 h, read-out: TGI
[12] = biological target: Mast/stem cell growth factor receptor Kit (Homo sapiens, UniProt P10721); experiment: Inhibition of cKIT (unknown origin)
[13] = Toxicity in KM mouse assessed as mouse survival at 820 mg/kg, po administered as single dose measured daily for 14 days (reference value: 100%); assay type: organism-based; conditions: in vivo
[14] = system: Mus musculus; experiment: Toxicity in KM mouse assessed as mouse mortality at 420 mg/kg, po administered as single dose measured daily for 14 days; assay type: organism-based; conditions: in vivo, 336 h
[15] = Toxicity in KM mouse assessed as mouse survival at 920 mg/kg, po administered as single dose measured daily for 14 days (reference value: 100%); assay type: organism-based; conditions: in vivo
[16] = system: HepG2; experiment: Cytotoxicity in human HepG2 cells incubated for 72 hrs by sulforhodamine B assay; conditions: HepG2, 72 h
[17] = Cmax in Sprague-Dawley rat at 20 mg/kg, po measured after 5 mins to 4 hrs post dose by LC-MS/MS method; assay type: ADME, organism-based; design: dose 20 mg/kg, route oral; conditions: in vivo
[18] = AUC (0 to t) in Sprague-Dawley rat at 20 mg/kg, po measured after 5 mins to 4 hrs post dose by LC-MS/MS method; assay type: ADME, organism-based; design: time 0.083-4 hr, dose 20 mg/kg, route oral; conditions: in vivo
[19] = biological target: Voltage-gated inwardly rectifying potassium channel KCNH2 (Homo sapiens, UniProt Q12809); experiment: Inhibition of human ERG at holding potential of -80 mV by cell based automated Qpatch method
[20] = biological target: Epidermal growth factor receptor (Homo sapiens, UniProt P00533); experiment: Inhibition of EGFR (unknown origin)
[21] = Elimination half life in Sprague-Dawley rat at 4 mg/kg, iv measured after 5 mins to 4 hrs post dose by LC-MS/MS method; assay type: ADME, organism-based; conditions: in vivo, read-out: beta t1/2 (converted)
[22] = system: Rattus norvegicus; experiment: Apparent volume of distribution during terminal phase in Sprague-Dawley rat at 4 mg/kg, iv measured after 5 mins to 4 hrs post dose by LC-MS/MS method; assay type: ADME, organism-based; conditions: in vivo
[23] = biological target: Hepatocyte growth factor receptor (Homo sapiens, UniProt P08581); experiment: Inhibition of cMet (unknown origin) using poly(Glu, Tyr)4:1 substrate and ATP incubated fro 60 mins by ELISA
[24] = system: PANC-1; experiment: Cytotoxicity in human PANC1 cells incubated for 72 hrs by sulforhodamine B assay; conditions: PANC-1, 72 h
[25] = AUC (0 to infinity) in Sprague-Dawley rat at 4 mg/kg, iv measured after 5 mins to 4 hrs post dose by LC-MS/MS method; assay type: ADME, organism-based; design: dose 4 mg/kg, time infinity, route intravenous; conditions: in vivo
[26] = system: PC-3; experiment: Cytotoxicity in human PC3 cells incubated for 72 hrs by sulforhodamine B assay; conditions: PC-3, 72 h
[27] = system: Mus musculus; experiment: Toxicity in KM mouse assessed as mouse mortality at 620 mg/kg, po administered as single dose measured daily for 14 days; assay type: organism-based; conditions: in vivo, 336 h
[28] = biological target: Proto-oncogene tyrosine-protein kinase receptor Ret (Homo sapiens, UniProt P07949); experiment: Inhibition of RET (unknown origin)
[29] = Toxicity in KM mouse assessed as mouse survival at 420 mg/kg, po administered as single dose measured daily for 14 days (reference value: 100%); assay type: organism-based; conditions: in vivo
[30] = AUC (0 to infinity) in Sprague-Dawley rat at 20 mg/kg, po measured after 5 mins to 4 hrs post dose by LC-MS/MS method; assay type: ADME, organism-based; design: dose 20 mg/kg, time infinity, route oral; conditions: in vivo
[31] = Apparent volume of distribution during terminal phase in Sprague-Dawley rat at 20 mg/kg, po measured after 5 mins to 4 hrs post dose by LC-MS/MS method; assay type: ADME, organism-based; conditions: in vivo, read-out: Vz/F
[32] = system: Mus musculus; experiment: Toxicity in human Caki1 cells xenografted nude mouse assessed as drug tolerance at 20 to 80 mg/kg, ig qd for 21 days; assay type: organism-based; conditions: in vivo, po, 504 h
[33] = system: Mus musculus; experiment: Toxicity in KM mouse assessed as mouse mortality at 520 mg/kg, po administered as single dose measured daily for 14 days; assay type: organism-based; conditions: in vivo, 336 h
[34] = Cmax in Sprague-Dawley rat at 4 mg/kg, iv measured after 5 mins to 4 hrs post dose by LC-MS/MS method; assay type: ADME, organism-based; design: dose 4 mg/kg, route intravenous; conditions: in vivo
[35] = system: Rattus norvegicus; experiment: Apparent clearance during terminal phase in Sprague-Dawley rat at 4 mg/kg, iv measured after 5 mins to 4 hrs post dose by LC-MS/MS method; assay type: ADME, organism-based; conditions: in vivo
[36] = MRT (0 to t) in Sprague-Dawley rat at 20 mg/kg, po measured after 5 mins to 4 hrs post dose by LC-MS/MS method; assay type: ADME, organism-based; conditions: in vivo
[37] = biological target: Vascular endothelial growth factor receptor 2 (Homo sapiens, UniProt P35968); experiment: Inhibition of VEGFR2 (unknown origin)
[38] = Toxicity in KM mouse assessed as mouse survival at 720 mg/kg, po administered as single dose measured daily for 14 days (reference value: 100%); assay type: organism-based; conditions: in vivo
[39] = Elimination half life in Sprague-Dawley rat at 20 mg/kg, po measured after 5 mins to 4 hrs post dose by LC-MS/MS method; assay type: ADME, organism-based; conditions: in vivo, read-out: beta t1/2 (converted)
[40] = Toxicity in KM mouse assessed as mouse survival at 520 mg/kg, po administered as single dose measured daily for 14 days (reference value: 100%); assay type: organism-based; conditions: in vivo

Sequence of Hepatocyte growth factor receptor (P08581 whole entry): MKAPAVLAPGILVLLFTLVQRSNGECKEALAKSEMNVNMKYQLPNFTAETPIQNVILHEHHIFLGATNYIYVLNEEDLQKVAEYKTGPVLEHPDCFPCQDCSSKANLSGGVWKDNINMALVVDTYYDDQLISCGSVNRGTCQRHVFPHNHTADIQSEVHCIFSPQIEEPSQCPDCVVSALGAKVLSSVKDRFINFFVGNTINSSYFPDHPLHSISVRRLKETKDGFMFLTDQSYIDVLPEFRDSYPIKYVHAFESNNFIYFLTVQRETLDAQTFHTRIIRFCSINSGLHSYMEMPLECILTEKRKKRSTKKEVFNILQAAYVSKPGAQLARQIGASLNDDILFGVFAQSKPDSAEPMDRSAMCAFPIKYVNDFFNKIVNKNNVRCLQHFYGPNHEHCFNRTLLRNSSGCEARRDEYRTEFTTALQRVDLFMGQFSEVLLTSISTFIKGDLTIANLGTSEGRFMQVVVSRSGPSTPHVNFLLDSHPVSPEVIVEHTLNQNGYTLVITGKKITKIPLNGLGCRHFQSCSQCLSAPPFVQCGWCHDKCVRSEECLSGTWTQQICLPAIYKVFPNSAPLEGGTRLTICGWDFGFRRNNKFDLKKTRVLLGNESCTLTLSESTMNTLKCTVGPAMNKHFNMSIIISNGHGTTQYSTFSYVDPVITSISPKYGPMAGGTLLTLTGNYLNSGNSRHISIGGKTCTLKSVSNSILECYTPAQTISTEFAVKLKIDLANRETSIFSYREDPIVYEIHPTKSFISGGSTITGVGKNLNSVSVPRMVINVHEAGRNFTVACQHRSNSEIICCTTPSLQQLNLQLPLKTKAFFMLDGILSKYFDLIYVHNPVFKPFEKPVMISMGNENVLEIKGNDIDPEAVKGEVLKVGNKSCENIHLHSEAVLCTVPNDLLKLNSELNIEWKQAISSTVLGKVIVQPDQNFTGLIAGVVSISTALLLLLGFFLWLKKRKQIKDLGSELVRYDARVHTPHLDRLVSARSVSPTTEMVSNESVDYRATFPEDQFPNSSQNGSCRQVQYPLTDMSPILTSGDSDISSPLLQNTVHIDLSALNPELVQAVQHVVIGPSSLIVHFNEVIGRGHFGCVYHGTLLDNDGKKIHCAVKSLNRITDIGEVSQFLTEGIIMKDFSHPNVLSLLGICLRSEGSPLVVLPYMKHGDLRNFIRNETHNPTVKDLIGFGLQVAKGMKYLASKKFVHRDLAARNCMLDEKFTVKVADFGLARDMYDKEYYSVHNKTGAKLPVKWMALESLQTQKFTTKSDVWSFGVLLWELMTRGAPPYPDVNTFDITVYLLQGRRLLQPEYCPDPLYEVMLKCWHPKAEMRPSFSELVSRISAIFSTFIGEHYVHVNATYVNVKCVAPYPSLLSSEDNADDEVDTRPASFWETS
Sequence of Proto-oncogene tyrosine-protein kinase receptor Ret (P07949 whole entry): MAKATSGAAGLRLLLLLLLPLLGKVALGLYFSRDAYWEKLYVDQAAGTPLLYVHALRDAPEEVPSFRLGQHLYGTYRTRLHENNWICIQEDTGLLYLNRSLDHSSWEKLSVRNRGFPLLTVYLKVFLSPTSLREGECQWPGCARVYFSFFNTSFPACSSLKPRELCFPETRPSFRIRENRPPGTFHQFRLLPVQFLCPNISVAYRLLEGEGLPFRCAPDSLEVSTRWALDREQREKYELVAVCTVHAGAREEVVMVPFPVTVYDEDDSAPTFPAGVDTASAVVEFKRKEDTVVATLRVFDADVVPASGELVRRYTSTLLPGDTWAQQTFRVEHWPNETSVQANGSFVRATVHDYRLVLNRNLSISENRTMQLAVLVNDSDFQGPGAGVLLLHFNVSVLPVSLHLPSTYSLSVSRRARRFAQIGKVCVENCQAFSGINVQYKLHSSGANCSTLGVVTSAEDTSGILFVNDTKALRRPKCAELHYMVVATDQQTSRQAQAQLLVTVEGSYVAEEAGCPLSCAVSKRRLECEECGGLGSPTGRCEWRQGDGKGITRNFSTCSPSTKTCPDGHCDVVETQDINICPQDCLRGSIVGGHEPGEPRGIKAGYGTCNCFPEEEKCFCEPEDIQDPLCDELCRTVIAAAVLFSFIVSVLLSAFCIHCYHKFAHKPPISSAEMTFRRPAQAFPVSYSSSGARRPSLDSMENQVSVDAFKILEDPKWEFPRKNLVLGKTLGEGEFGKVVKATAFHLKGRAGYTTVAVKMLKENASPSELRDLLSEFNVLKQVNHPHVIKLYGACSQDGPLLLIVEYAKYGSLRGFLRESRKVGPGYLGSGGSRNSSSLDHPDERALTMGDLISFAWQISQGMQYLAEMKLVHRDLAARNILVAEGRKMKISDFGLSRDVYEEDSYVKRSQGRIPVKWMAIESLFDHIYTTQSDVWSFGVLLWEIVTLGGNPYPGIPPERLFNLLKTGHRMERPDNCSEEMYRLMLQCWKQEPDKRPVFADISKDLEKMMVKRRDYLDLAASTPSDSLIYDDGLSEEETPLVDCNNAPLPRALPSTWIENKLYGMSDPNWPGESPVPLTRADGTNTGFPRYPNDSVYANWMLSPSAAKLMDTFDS
Sequence of Epidermal growth factor receptor (P00533 whole entry): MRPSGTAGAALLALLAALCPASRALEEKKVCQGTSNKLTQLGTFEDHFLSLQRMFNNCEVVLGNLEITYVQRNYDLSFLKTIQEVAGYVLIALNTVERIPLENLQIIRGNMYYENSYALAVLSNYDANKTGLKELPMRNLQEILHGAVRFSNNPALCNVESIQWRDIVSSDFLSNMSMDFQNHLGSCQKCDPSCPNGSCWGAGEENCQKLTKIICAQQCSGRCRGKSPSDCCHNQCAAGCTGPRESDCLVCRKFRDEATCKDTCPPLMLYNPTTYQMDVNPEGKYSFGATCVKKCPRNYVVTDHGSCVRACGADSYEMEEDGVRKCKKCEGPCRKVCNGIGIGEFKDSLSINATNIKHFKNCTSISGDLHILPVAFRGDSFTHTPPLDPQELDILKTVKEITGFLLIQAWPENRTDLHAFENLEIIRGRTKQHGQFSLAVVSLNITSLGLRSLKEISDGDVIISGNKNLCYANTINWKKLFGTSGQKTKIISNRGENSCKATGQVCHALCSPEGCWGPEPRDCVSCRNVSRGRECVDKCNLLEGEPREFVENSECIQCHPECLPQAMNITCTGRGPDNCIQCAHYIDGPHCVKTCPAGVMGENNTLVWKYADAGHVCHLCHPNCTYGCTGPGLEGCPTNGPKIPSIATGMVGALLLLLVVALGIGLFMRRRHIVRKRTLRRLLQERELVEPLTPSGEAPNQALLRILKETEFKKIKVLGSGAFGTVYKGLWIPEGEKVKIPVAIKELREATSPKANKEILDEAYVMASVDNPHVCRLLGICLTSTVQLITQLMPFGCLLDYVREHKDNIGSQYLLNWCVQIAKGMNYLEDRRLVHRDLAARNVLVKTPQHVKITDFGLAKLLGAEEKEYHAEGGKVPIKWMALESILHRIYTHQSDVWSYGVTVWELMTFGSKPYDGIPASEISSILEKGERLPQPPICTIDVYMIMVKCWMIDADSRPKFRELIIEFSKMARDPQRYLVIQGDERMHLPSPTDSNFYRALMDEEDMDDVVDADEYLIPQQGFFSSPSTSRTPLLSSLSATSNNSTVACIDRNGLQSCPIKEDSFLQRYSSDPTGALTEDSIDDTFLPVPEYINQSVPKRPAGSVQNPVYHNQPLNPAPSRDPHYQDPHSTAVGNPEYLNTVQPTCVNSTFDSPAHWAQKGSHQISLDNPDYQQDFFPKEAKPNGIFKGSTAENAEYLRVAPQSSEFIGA
Sequence of Voltage-gated inwardly rectifying potassium channel KCNH2 (Q12809 whole entry): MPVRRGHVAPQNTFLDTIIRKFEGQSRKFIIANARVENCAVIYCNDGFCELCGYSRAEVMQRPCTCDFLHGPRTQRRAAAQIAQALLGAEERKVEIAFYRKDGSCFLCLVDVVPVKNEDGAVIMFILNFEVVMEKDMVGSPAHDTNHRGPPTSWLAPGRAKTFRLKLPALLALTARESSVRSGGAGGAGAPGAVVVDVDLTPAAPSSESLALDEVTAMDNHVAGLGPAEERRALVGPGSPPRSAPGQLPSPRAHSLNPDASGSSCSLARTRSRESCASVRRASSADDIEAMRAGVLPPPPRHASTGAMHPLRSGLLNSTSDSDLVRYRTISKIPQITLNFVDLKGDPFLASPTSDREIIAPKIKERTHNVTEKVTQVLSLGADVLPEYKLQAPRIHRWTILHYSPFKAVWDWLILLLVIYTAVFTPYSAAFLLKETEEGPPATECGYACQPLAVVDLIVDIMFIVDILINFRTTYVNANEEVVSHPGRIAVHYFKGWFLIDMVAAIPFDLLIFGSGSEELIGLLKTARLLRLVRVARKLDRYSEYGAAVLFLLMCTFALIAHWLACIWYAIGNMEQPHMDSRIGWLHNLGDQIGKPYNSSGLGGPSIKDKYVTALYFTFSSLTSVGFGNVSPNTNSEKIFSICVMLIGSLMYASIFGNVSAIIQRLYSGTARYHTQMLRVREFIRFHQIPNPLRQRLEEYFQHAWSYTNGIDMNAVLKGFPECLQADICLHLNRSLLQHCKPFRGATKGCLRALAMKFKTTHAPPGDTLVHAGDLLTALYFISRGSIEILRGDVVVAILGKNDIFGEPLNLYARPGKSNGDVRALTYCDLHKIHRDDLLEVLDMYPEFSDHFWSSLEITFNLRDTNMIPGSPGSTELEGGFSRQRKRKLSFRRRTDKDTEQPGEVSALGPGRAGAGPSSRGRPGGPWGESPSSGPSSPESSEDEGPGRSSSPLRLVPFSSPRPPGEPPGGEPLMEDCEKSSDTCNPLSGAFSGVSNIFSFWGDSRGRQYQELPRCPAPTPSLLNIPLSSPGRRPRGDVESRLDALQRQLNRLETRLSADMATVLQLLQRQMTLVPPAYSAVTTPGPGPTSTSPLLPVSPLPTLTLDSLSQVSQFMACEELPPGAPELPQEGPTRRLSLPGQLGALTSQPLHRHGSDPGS

SMILES: COc1cc2c(cc1OC)Nc1ncnc(Oc3ccc(NC(=O)C4(C(=O)Nc5ccc(F)cc5)CC4)cc3F)c1NC2
AUC(0-t) [1]: 3590 ng·h/mL
IC50 [2]: 852 nM
inhibition in vivo at 80 mg/kg [3]: 64.5%
inhibition in vivo at 40 mg/kg [4]: 58.9%
bioavailability [5]: 39%
Tmax [6]: 1.67 h
CL/F [7]: 48.8 mL/min/kg
survival at 336 h [8]: 100%
IC50 [9]: 748 nM
MRT last [10]: 1 h
inhibition in vivo at 20 mg/kg [11]: 51.1%
IC50 [12]: 259 nM
survival at 336 h [13]: 60%
Activity [14]: Non-Toxic
survival at 336 h [15]: 40%
IC50 [16]: 2950 nM
Cmax [17]: 1930 ng/mL
AUC(0-t) [18]: 6990 ng·h/mL
IC50 [19]: > 40000 nM
IC50 [20]: 268 nM
half-life [21]: 0.91 h
Vz/F [22]: 1.48 L/kg
IC50 [23]: 24.4 nM
IC50 [24]: 1860 nM
AUC(0-inf) [25]: 3590 ng·h/mL
IC50 [26]: 4100 nM
Activity [27]: Non-Toxic
IC50 [28]: 163 nM
survival at 336 h [29]: 100%
AUC(0-inf) [30]: 7080 ng·h/mL
Vd/F [31]: 4.52 L/kg
Activity [32]: Non-Toxic
Activity [33]: Non-Toxic
Cmax [34]: 4660 ng/mL
CLz/F [35]: 19 mL/min/kg
MRT last [36]: 2.36 h
IC50 [37]: 62.5 nM
survival at 336 h [38]: 80%
half-life [39]: 1.09 h
survival at 336 h [40]: 100%

IC50 [23]: > 1000 nM
SMILES: COc1cc2c(cc1OC)Nc1ncnc(Oc3ccc(NC(=O)C4(C(=O)Nc5ccc(F)cc5)CC4)cc3)c1N(C)C2

IC50 [23]: > 1000 nM
SMILES: COc1cc2c(cc1OC)C(=O)Nc1c(Oc3ccc(NC(=O)C4(C(=O)Nc5ccc(F)cc5)CC4)cc3F)ccnc1N2

IC50 [23]: > 1000 nM
SMILES: COc1cc2c(cc1OC)C(=O)Nc1c(Oc3ccc(NC(=O)C4(C(=O)Nc5ccc(F)cc5)CC4)cc3)ccnc1N2

IC50 [23]: > 1000 nM
SMILES: COc1cc2c(cc1OC)Nc1nccc(Oc3ccc(NC(=O)C4(C(=O)Nc5ccc(F)cc5)CC4)cc3F)c1NC2

IC50 [23]: > 1000 nM
SMILES: Cc1nc(Oc2ccc(NC(=O)C3(C(=O)Nc4ccc(F)cc4)CC3)cc2)c2c(n1)Oc1ccccc1CN2

IC50 [23]: > 1000 nM
SMILES: COc1cc2c(cc1OC)C(=O)Nc1c(ncnc1Oc1ccc(NC(=O)C3(C(=O)Nc4ccc(F)cc4)CC3)cc1F)N2

SMILES: COc1cc2c(cc1OC)Nc1ncnc(Oc3ccc(NC(=O)C4(C(=O)Nc5ccc(F)cc5)CC4)cc3F)c1N=C2
IC50 [9]: 864 nM
IC50 [16]: 1340 nM
IC50 [24]: 1660 nM
IC50 [26]: 1610 nM

IC50 [23]: > 1000 nM
SMILES: COc1ccc2c(c1)CNc1c(nc(C)nc1Oc1ccc(NC(=O)C3(C(=O)Nc4ccc(F)cc4)CC3)cc1)N2

IC50 [23]: > 1000 nM
SMILES: COc1cc2c(cc1OC)Nc1nccc(Oc3ccc(NC(=O)C4(C(=O)Nc5ccc(F)cc5)CC4)cc3)c1NC2
